Tests used:
5-LO [1] = target: T1, 5-LO (Homo sapiens, UniProt P09917); experiment: test a) in vitro heparinised human blood, calcium ionophore A23187 challenge, LTB4 radioimmunoassay; assay type: cell-based
T1 construct: incubating a test compound with heparinised human blood, prior to challenge with the calcium ionophore A23187; from tissue; host or cells: heparinised human blood (endogenous enzyme of the blood cells)
T1 sequence (P09917 1-674): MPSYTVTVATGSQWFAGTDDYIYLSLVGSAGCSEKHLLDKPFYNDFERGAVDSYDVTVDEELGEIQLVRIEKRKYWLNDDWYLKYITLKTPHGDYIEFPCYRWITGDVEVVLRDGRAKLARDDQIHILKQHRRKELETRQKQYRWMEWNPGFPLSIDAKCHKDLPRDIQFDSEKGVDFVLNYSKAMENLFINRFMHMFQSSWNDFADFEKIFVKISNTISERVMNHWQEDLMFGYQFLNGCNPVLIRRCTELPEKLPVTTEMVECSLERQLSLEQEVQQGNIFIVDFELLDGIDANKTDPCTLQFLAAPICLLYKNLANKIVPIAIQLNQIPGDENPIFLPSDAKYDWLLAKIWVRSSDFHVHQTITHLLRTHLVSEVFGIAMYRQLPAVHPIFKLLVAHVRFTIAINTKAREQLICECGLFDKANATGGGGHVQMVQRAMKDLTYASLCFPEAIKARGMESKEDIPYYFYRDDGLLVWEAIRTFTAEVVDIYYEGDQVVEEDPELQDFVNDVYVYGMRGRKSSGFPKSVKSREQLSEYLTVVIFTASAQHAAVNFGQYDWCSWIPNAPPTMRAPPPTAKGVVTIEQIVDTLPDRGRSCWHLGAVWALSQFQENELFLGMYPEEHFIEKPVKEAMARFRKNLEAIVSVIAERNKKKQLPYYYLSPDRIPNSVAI
Procedure: (§1) As stated previously, the benzodioxole derivatives of the formula I are inhibitors of the enzyme 5-LO.
a) An in vitro assay system involving incubating a test compound with heparinised human blood, prior to challenge with the calcium ionophore A23187 and the indirectly measuring the inhibitory effects on 5-LO by assaying the amount of LTB4 using specific radioimmunoassays described by Carey and Forder (F. Carey and R.A. Forder, Prostaglandins Leukotrienes Med., 1986, 22, 57; Prostaglandins, 1984, 28, 666; Brit. J. Pharmacol. 1985, 84, 34P) which involve the use of a protein-LTB4 conjugate produced using the procedure of Young et alia (Prostaglandins, 1983, 26(4), 605-613). The effects of a test compound on the enzyme cyclooxygenase (which is involved in the alternative metabolic pathway for arachidonic acid and gives rise to prostaglandins, thromboxanes and related metabolites) may be measured at the same time using the specific radioimmunoassay for thromboxane B2 (T×B2) described by Carey and Forder (see above). This test provides an indication of the effects of a test compound against 5-LO and also cyclooxygenase in the presence of blood cells and proteins. It permits the selectivity of the inhibitory effect on 5-LO or cyclooxygenase to be assessed.

5-LO [2] = target: T2, 5-LO (Rattus norvegicus, UniProt P12527); experiment: test c) in vivo zymosan-induced LTB4 liberation in rat air pouch; conditions: oral, male rats, 3 hours
T2 construct: liberation of LTB4 induced by zymosan within an air pouch generated within the subcutaneous tissue of the back of male rats; from tissue; host or cells: live male rats, zymosan-inflamed subcutaneous air pouch (endogenous enzyme)
T2 sequence (P12527 1-673): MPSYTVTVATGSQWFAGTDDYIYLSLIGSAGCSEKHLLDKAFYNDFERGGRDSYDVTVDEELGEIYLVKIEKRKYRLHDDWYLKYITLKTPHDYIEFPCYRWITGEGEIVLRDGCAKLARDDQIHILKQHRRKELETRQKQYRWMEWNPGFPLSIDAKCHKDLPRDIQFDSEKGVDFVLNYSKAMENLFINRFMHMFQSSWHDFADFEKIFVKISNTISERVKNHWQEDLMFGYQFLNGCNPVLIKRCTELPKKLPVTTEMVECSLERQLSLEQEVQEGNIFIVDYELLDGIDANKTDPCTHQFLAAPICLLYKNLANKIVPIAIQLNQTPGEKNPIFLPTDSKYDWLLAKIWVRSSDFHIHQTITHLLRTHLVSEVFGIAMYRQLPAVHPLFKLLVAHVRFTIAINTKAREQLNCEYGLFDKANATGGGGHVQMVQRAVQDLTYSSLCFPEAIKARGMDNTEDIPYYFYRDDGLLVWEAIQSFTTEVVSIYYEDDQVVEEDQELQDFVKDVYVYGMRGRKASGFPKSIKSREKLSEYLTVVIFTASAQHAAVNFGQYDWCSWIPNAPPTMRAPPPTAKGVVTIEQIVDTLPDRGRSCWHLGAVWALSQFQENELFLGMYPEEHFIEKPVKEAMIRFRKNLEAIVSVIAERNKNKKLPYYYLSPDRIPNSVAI
Procedure: as §1
c) An in vivo system involving measuring the effects of a test compound administered orally against the liberation of LTB4 induced by zymosan within an air pouch generated within the subcutaneous tissue of the back of male rats. The rats are anaesthetised and air pouches are formed by the injection of sterile air (20 ml). A further injection of air (10 ml) is similarly given after 3 days. At 6 days after the initial air injection the test compound is administered (usually orally as the suspension produced when a solution of the test compound in dimethylsulphoxide is added to hydroxypropylmethylcellulose), followed by the intrapouch injection of zymosan (1 ml of a 1% suspension in physiological saline). After 3 hours the rats are killed, the air pouches are lavaged with physiological saline, and the specific radioimmunoassay described above is used to assay LTB4 in the washings. This test provides an indication of inhibitory effects against 5-LO in an inflammatory milieu.

IC50 (5-LO [1]): 380 nM | ED50 (5-LO [2]): < 0.5 mg/kg
SMILES: COC1(c2ccc3c(c2)OC(c2ccc4c(ccc(=O)n4C)c2)O3)CCOCC1 (centres unmarked) [5-(4-methoxytetrahydropyran-4-yl)-2-(1-methyl-2-oxo-1,2-dihydroquinolin-6-yl)benzo-1,3-dioxole]

Source: patent US5232930A, “2-heteroaryl-substituted benzodioxoic having 5-lipoxygenase inhibitory activity” (Imperial Chemical Industries PLC, priority 1991, dated 1993)
